Laboratory results taken from patent publication US20160194358A1, “LINEAR PEPTIDE ANTIBIOTCS” (priority 2013, published 2016).
In brackets after ≈: the same amount, converted by molar mass. Like-named read-outs stand apart in the source and are kept apart here. *1 amine or outer side, *2 acyl side, *3 side chain or, on linkers, in order; H or OH if unused. Where a SMILES comes first, the peptide text is derived from it. [ ]: non-standard residue; d: D form. The star is where a group is joined. ξ: configuration not given here. boroAla((+)-pinanediol) = C[C@H](N*)B1O[C@@H]2C[C@@H]3C[C@@H](C3(C)C)[C@]2(C)O1; Benzoyl(4-(4-Cl-Ph)) = O=C(c1ccc(-c2ccc(Cl)cc2)cc1)*; Ethanesulfonyl(2-NHDecyl) = CCCCCCCCCCNCCS(=O)(=O)*; ξ3Amino2oxobutanoyl = CC(N[*:1])C(=O)C(=O)[*:2]; Propanoyl(3-decylamino) = CCCCCCCCCCNCCC(=O)*; X21 = O=S(=O)(c1ccc(-c2ccc(Cl)cc2)nc1)*; X33 = CC(C)(O)C#CC#Cc1ccc(C(=O)*)cc1; AlaCOCOOMe = COC(=O)C(=O)[C@H](C)N*; X1 = C[C@H](N[*:1])C(=O)C(=O)[*:2]; Myristoyl = CCCCCCCCCCCCCC(=O)*; X15 = Cc1nnc(C(=O)[C@H](C)N*)o1; Thr(3ξ) = CC(O)[C@H](N)C(=O)O; X28 = C[C@H](N*)C(=O)c1ncccn1; X19 = CCCCCCCCCCN(C)CCC(=O)*; Decanoyl = CCCCCCCCCC(=O)*; X17 = CCCCCCCCCNCCCC(=O)*; boroAla = C[C@H](N*)B(O)O; Octanoyl = CCCCCCCC(=O)*; Dab = NCC[C@H](N)C(=O)O; X24 = CCCCCCCCNCCC(=O)*; Dap = NC[C@H](N)C(=O)O; NHBu = CCCCN*

Key:
[1] = target: S. aureus SPase (Staphylococcus aureus, UniProt P0A070); experiment: biochemical; details: IC 50 (nM) S. aureus, 20 μM substrate, 10 minutes preincubation
Chain of S. aureus SPase (P0A070 whole entry): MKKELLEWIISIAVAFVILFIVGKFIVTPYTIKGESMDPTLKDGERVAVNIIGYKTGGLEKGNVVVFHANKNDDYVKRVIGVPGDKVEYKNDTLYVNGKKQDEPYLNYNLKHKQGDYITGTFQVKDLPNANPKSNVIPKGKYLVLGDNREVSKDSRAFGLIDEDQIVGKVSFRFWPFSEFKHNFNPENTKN
Description: Full length His-tagged S. aureus SPase protein was expressed similarly from E. coli BL21(DE3) containing the plasmid pCDF1-SaSpsB and purified similarly to the E. coli protein with the following exceptions. SPase protein was solubilized using 300 mM NaCl, 20 mM Tris pH 8.06, 5 mM Imidazole, 10% glycerol, 1% Triton X-100, prior to purification in Ni-NTA Superflow resin and resin bound protein was washed in a similar buffer containing 1% Elugent in place of Triton X-100 prior to protein eluted in wash buffer supplemented with 300 mM imidazole. […] All protein concentrations were determined by BCA assay.
(§1) Signal peptidase enzyme activity of the above proteins was measured using two fluorogenic peptide substrates (decanoyl-LSSPAYNO2A ? ADKabzPD and decanoyl-LTPTAYNO2A ? ASKKabzDD), where abz is the fluorescence donor 2-aminobenzamide, YNO2 is the fluorescence acceptor 3-nitrotyrosine, and the cleavage site is indicated with an arrow. Enzyme mix solution was prepared by diluting 2.5 nM of Escherichia coli or Staphylococcus aureus SPase protein into reaction buffers consisting of 20 mM PO4 pH 7.4, 100 mM NaCl, and 1% Elugent™ or octyl phenoxypolyethoxylethanol detergent at a concentration of 0.25% or 0.0625%. Reactions were initiated by the addition of substrate to a final concentration of 20 μM. Reaction progress was monitored by measuring the increase in fluorescence signal (excitation at 314 nm, emission at 416 nm) using a SpectraMax M2 fluorescence microplate reader. To determine IC50 values of test compounds, compound stock solutions were prepared in DMSO at a concentration of 1 mM. Three-folder serial dilutions of test compounds, starting at 10 μM, were prepared in enzyme mix solution and incubated at room temperature for 10 minutes. Following this incubation, fluorogenic substrate was added to a final concentration of 20 μM and the increase in fluorescence, corresponding to substrate cleavage, was monitored continuously at room temperature for 1 hour. Initial reaction rates were calculated based on the rate of increase in fluorescence during the reaction. Reaction rates were plotted as a function of compound concentration, and IC50 values are determined nonlinear regression analysis (SoftMaxPro 5.4, Molecular Devices™) of the sigmoidal dose-response curve.

[2] = target: T1, E. coli SPase (Escherichia coli, UniProt P00803); experiment: Biochemical SPase activity assay, fluorogenic peptide substrate, E. coli enzyme; details: 20 μM substrate, 10 minutes preincubation, read-out: IC 50 (nM) E. coli
T1 construct: Full length His-tagged E. coli SPase proteins; His; made in house; host or cells: E. coli BL21(DE3)
T1 sequence (P00803 whole entry): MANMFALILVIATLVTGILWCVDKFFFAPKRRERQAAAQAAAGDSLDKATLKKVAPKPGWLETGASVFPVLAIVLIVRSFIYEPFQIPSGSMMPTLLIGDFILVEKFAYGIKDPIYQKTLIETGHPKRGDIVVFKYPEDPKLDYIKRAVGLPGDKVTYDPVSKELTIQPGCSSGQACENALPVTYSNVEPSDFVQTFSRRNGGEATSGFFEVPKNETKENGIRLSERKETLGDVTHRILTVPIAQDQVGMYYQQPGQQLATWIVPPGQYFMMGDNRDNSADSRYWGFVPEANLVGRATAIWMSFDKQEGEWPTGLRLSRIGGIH
Description: Full length His-tagged E. coli SPase proteins were expressed in E. coli BL21(DE3) containing the plasmid pET23-lepB. Briefly, saturated overnight cultures grown in 20 ml of Luria-Bertani medium supplemented with ampicillin were subcultures into 1.5 L of Luria-Bertani, and shaken at 37° C. until an optical density at 600 nm of 0.4-0.5 was achieved.
as §1

[3] = tested on: Escherichia coli strain MC4100 IMP-4213, which harbors an LptD mutation; details: E. coli MC4100 IMP-4213, 35° C., 22 hours
Description: (§2) In vitro antimicrobial activity of each compound was determined by measuring minimal inhibitor concentrations (MICs) using the broth micro-dilution technique as approved by the Clinical and Laboratory Standards Institute (CLSI). Antibacterial activity was measure against two strains of bacteria: 1) methicillin resistant Staphylococcus aureus (MRSA) strain USA300 (NRS384) and 2) Escherichia coli strain MC4100 IMP-4213, which harbors an LptD mutation. Bacterial inocula were prepared by scraping cells into 1 mL of testing media (cation adjusted Mueller Hinton Broth supplemented with 0.002% v/v Tween-80) and diluting to a final OD600nm of 0.01.
(§3) Test compounds were prepared in DMSO at a concentration of 10 mg/ml. These compound stocks were diluted into testing media at a concentration of 64 μg/ml and 9 serial 1:2 dilutions were made in the same media, in 96-well U bottom microtiter dishes. Bacterial inocula were added to the two fold serial dilutions of test compounds to a final density of OD OD600nm of 0.0005 and incubated stationarily at 35° C. for 22 hours, after which the plates were examined visually.

[4] = tested on: methicillin resistant Staphylococcus aureus (MRSA) strain USA300 (NRS384)
Description: as §2, §3

[5] = MRSA USA300 (NRS384), 35° C., 22 hours

Compound | MIC (μg/mL) E. coli [3] [µg/mL] | MIC (μg/mL) S. aureus [4, 5] [µg/mL] | further results
Cc1nnc(C(=O)[C@H](C)NC(=O)[C@H](CCCCN)NC(=O)[C@H](C)NC(=O)[C@H](CCCCN)NC(=O)[C@H](CN)NC(=O)c2ccc(-c3ccc(Cl)cc3)cc2)o1 [Compound 213] ({Benzoyl(4-(4-Cl-Ph))}-[Dap]KAK-X15) | 64 (≈ 81.7 µM) | 32 (≈ 40.9 µM) | IC50 [1]: > 10000 nM; IC50 [2]: 49 nM
CCCCCCCCCC(=O)N[C@@H](CCCCN)C(=O)N[C@H](C(=O)N[C@@H](C)C(=O)N[C@@H](CC(N)=O)C(=O)NC(C)C(=O)C(=O)NC)C(C)O (stereo partly shown) [Compound 107] (Decanoyl-K[Thr(3ξ)]AN[ξ3Amino2oxobutanoyl]-NHMe) | >64 | >64 | IC50 [1]: 360 nM; IC50 [2]: 3200 nM
CCCCNC(=O)C(=O)[C@H](C)NC(=O)[C@H](CCCCN)NC(=O)[C@H](C)NC(=O)[C@@H](NC(=O)[C@H](CN)NC(=O)c1ccc(-c2ccc(Cl)cc2)cc1)[C@@H](C)O [Compound 105] ({Benzoyl(4-(4-Cl-Ph))}-[Dap]TAK[X1]-NHBu) | 64 (≈ 82.8 µM) | 51 (≈ 65.9 µM) | IC50 [1]: 1300 nM; IC50 [2]: 900 nM
CCCCc1ccc(-c2ccc(C(=O)N[C@@H](CCN)C(=O)N[C@H](C(=O)N[C@@H](C)C(=O)N[C@@H](CCCCN)C(=O)N[C@@H](C)C(=O)C3OC3C)[C@@H](C)O)cc2)cc1 (single isomer, unassigned) [Compound 205 P1] | – | – | IC50 [1]: > 10000 nM; IC50 [2]: > 10000 nM; MIC (μg/mL) E. coli ([3]; listed as 205 P1): 32 µg/mL (≈ 41.8 µM); MIC (μg/mL) S. aureus ([4]; MRSA USA300 (NRS384), 35° C., 22 hours, listed as 205 P1): >64 µg/mL
CCCCCCCCCCNCCS(=O)(=O)N[C@@H](CCCCN)C(=O)N[C@H](C(=O)N[C@@H](C)C(=O)N[C@@H](CCCCN)C(=O)N[C@@H](C)C(=O)C(=O)OC)[C@@H](C)O [Compound 250] ({Ethanesulfonyl(2-NHDecyl)}-KTAK-AlaCOCOOMe) | >64 | – | MIC (μg/mL) S. aureus ([4]; USA300, 22 h): 0.5 µg/mL (≈ 0.62 µM)
CCCCCCCCCNCCCC(=O)N[C@@H](CCCCN)C(=O)N[C@H](C(=O)N[C@@H](C)C(=O)N[C@@H](CCCCN)C(=O)N[C@@H](C)B(O)O)[C@@H](C)O [Compound 228] (X17-KTAK-boroAla) | >64 | – | MIC (μg/mL) S. aureus ([4]; USA300, 22 h): 2 µg/mL (≈ 2.74 µM)
CCCCCCCCCCCCCC(=O)N[C@@H](CCN)C(=O)N[C@H](C(=O)N[C@@H](C)C(=O)N[C@@H](CCCCN)C(=O)N[C@@H](C)B1O[C@@H]2C[C@@H]3C[C@@H](C3(C)C)[C@]2(C)O1)[C@@H](C)O [Compound 272] (Myristoyl-[Dab]TAK-{boroAla((+)-pinanediol)}) | 0.13 (≈ 0.156 µM) | 0.13 (≈ 0.156 µM) | –
CCCCCCCC(=O)N[C@@H](CN)C(=O)N[C@H](C(=O)N[C@@H](C)C(=O)N[C@@H](CCCCN)C(=O)N[C@@H](C)B1O[C@@H]2C[C@@H]3C[C@@H](C3(C)C)[C@]2(C)O1)[C@@H](C)O [Compound 260] (Octanoyl-[Dap]TAK-{boroAla((+)-pinanediol)}) | 32 (≈ 43.5 µM) | 23 (≈ 31.3 µM) | –
C[C@H](NC(=O)[C@H](CCCCN)NC(=O)[C@H](C)NC(=O)[C@@H](NC(=O)[C@H](CCN)NC(=O)c1ccc(C#CC#CC(C)(C)O)cc1)[C@@H](C)O)B1O[C@@H]2C[C@@H]3C[C@@H](C3(C)C)[C@]2(C)O1 [Compound 264] (X33-[Dab]TAK-{boroAla((+)-pinanediol)}) | 4 (≈ 4.8 µM) | 8 (≈ 9.59 µM) | –
CCCCCCCCCCNC[C@@H](N)C(=O)N[C@H](C(=O)N[C@@H](C)C(=O)N[C@@H](CCCCN)C(=O)N[C@@H](C)B1O[C@@H]2C[C@@H]3C[C@@H](C3(C)C)[C@]2(C)O1)[C@@H](C)O [Compound 241] | 32 (≈ 42.7 µM) | 1 (≈ 1.33 µM) | –
C[C@H](NC(=O)[C@@H](NC(=O)[C@H](CN)NC(=O)c1ccc(-c2ccc(Cl)cc2)cc1)[C@@H](C)O)C(=O)N[C@@H](CCCCN)C(=O)N[C@@H](C)C(=O)c1ncccn1 [Compound 267] ({Benzoyl(4-(4-Cl-Ph))}-[Dap]TAK-X28) | 32 (≈ 42.5 µM) | 11 (≈ 14.6 µM) | –
CCCCc1ccc(-c2ccc(CN(CCCN)C(=O)N[C@H](C(=O)N[C@@H](C)C(=O)N[C@@H](CCCCN)C(=O)N[C@@H](C)B3OC4C[C@@H]5C[C@@H](C5(C)C)[C@]4(C)O3)[C@@H](C)O)cc2)cc1 (stereo partly shown) [Compound 132] | 32 (≈ 37.8 µM) | 5.7 (≈ 6.74 µM) | –
CCCCCCCCCCNCCS(=O)(=O)N[C@@H](CCCCN)C(=O)N[C@H](C(=O)N[C@@H](C)C(=O)N[C@@H](CCCCN)C(=O)N[C@@H](C)B1O[C@@H]2C[C@@H]3C[C@@H](C3(C)C)[C@]2(C)O1)[C@@H](C)O [Compound 237] ({Ethanesulfonyl(2-NHDecyl)}-KTAK-{boroAla((+)-pinanediol)}) | 32 (≈ 35.6 µM) | 0.35 (≈ 0.389 µM) | –
CCCCCCCCCCNCCC(=O)N[C@@H](CCCCN)C(=O)N[C@H](C(=O)N[C@@H](C)C(=O)N[C@@H](Cc1cnc[nH]1)C(=O)N[C@@H](C)B1O[C@@H]2C[C@@H]3C[C@@H](C3(C)C)[C@]2(C)O1)[C@@H](C)O [Compound 225] ({Propanoyl(3-decylamino)}-KTAH-{boroAla((+)-pinanediol)}) | 16 (≈ 18.3 µM) | 2 (≈ 2.29 µM) | –
CCCCCCCCCCNCCS(=O)(=O)N[C@@H](CCCCN)C(=O)N[C@H](C(=O)N[C@@H](C)C(=O)N[C@@H](CCCCN)C(=O)N[C@@H](C)B(O)O)[C@@H](C)O [Compound 238] ({Ethanesulfonyl(2-NHDecyl)}-KTAK-boroAla) | 32 (≈ 41.8 µM) | – | MIC (μg/mL) S. aureus ([4]; USA300, 22 h): 0.18 µg/mL (≈ 0.235 µM)
CCCCCCCCNCCC(=O)N[C@@H](CCCCN)C(=O)N[C@H](C(=O)N[C@@H](C)C(=O)N[C@@H](CCCCN)C(=O)N[C@@H](C)B1O[C@@H]2C[C@@H]3C[C@@H](C3(C)C)[C@]2(C)O1)[C@@H](C)O [Compound 226] (X24-KTAK-{boroAla((+)-pinanediol)}) | >64 | 6.3 (≈ 7.55 µM) | –
CCCCCCCCCCN(C)CCC(=O)N[C@@H](CCCCN)C(=O)N[C@H](C(=O)N[C@@H](C)C(=O)N[C@@H](CCCCN)C(=O)N[C@@H](C)B1O[C@@H]2C[C@@H]3C[C@@H](C3(C)C)[C@]2(C)O1)[C@@H](C)O [Compound 240] (X19-KTAK-{boroAla((+)-pinanediol)}) | 32 (≈ 36.5 µM) | 1.4 (≈ 1.6 µM) | –
C[C@H](NC(=O)[C@H](CCCCN)NC(=O)[C@H](C)NC(=O)[C@@H](NC(=O)[C@H](CCN)NS(=O)(=O)c1ccc(-c2ccc(Cl)cc2)nc1)[C@@H](C)O)B1O[C@@H]2C[C@@H]3C[C@@H](C3(C)C)[C@]2(C)O1 [Compound 234] (X21-[Dab]TAK-{boroAla((+)-pinanediol)}) | 32 (≈ 36.6 µM) | 16 (≈ 18.3 µM) | –
C[C@H](NC(=O)[C@H](CCCCN)NC(=O)[C@H](C)NC(=O)[C@@H](NC(=O)C(NC(=O)c1ccc(-c2ccc(Cl)cc2)cc1)C1CNC1)[C@@H](C)O)B1O[C@@H]2C[C@@H]3C[C@@H](C3(C)C)[C@]2(C)O1 (stereo partly shown) [Compound 282] | 16 (≈ 18.8 µM) | 8 (≈ 9.41 µM) | –
